Results published in ChEMBL document CHEMBL1201862, “PubChem BioAssay data set” (2004).
The source made the active and inactive calls.

Legend:
[1] = molecular target: Glyceraldehyde-3-phosphate dehydrogenase (Homo sapiens, UniProt P04406)
[2] = molecular target: T1, Bcl-2-related protein A1 (Mus musculus, UniProt Q07440); assay: Bfl-1 binding inhibitors, SAR follow-up, biochemical, fluorescence polarization (AID 1070)
T1 sequence (Q07440 whole entry): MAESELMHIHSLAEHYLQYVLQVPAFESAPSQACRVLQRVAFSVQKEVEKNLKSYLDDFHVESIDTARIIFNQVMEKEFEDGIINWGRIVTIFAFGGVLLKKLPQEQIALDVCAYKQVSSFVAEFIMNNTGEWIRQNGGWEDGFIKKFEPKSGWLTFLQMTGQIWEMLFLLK

[3] = molecular target: T1, Bcl-2-related protein A1; assay: small-molecule antagonists of Bfl-1/BH3 interaction – biochemical, TR-FRET, mouse Bfl-1, confirmation (AID 621);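 further: TR-FRET binding of GST-Bfl-1 to FITC-labelled Bid peptide via terbium antibody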
[4] = molecular target: T2, Ubiquitin-conjugating enzyme E2 N (Homo sapiens, UniProt P61088); format: functional
T2 sequence (P61088 whole entry): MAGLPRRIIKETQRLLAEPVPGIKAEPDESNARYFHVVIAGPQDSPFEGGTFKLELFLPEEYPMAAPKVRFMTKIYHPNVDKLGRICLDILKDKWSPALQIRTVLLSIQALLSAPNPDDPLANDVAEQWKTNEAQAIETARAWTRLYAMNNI

[5] = molecular target: T2, Ubiquitin-conjugating enzyme E2 N; format: functional; remark: listed apart in the source
[6] = molecular target: T1, Bcl-2-related protein A1; format: functional
[7] = viability loss in Vero cells – cytotoxicity control for Vif-APOBEC3G degradation inhibitor project, dose response (AID 1117358); format: functional; settings: Vero
[8] = molecular target: T3, Protein Tat (Human immunodeficiency virus type 1 group M subtype B (isolate HXB2)(HIV-1), UniProt P04608); format: functional;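 further: tat binding to TAR RNA read out by fluorescence polarization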
T3 sequence (P04608 whole entry): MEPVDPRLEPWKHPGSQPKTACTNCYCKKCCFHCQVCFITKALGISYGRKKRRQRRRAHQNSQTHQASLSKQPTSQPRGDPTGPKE

[9] = antiviral protection against BTV-induced cell death – arbovirus, BSR cells, confirmation (AID 1250); format: functional;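 further: protection from viral cytopathic effect measured as cell viability by ATP luminescence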
[10] = Luminescence Cell-Based Dose Response to Identify Activators of Luciferase Translation or Activity in H4-C Neuroglioblastoma Cells. [Related pubchem assays: 1829 (Project Summary), 1814 (Primary HTS)]; format: functional
[11] = Luminescence Cell-Based Dose Confirmation HTS to Identify Activators of 5'UTR Stem-Loop Driven Alpha-Synuclein mRNA Translation in H4 Neuroglioblastoma Cells. [Related pubchem assays: 1829 (Project Summary), 1814 (Primary HTS)]; format: functional
[12] = tested on: H4; assay: Luminescence Cell-Based Dose Response HTS to Identify Activators of 5'UTR Stem-Loop Driven Prion Protein mRNA Translation in H4 Neuroglioblastoma Cells. [Related pubchem assays: 1829 (Project Summary), 1814 (Primary HTS)]; format: functional; settings: Homo sapiens
[13] = Luminescence Cell-Based Dose Confirmation to Identify Activators of 5'UTR Stem-Loop Driven Alpha-Synuclein mRNA Translation in H4 Neuroglioblastoma Cells. [Related pubchem assays: 1829 (Project Summary), 1814 (Primary HTS)]; format: functional
[14] = Luminescence Cell-Based Dose Response to Identify Activators of 5'UTR Stem-Loop Driven Prion Protein mRNA Translation in H4-C Neuroglioblastoma Cells. [Related pubchem assays: 1829 (Project Summary), 1814 (Primary HTS)]; format: functional
[15] = Luminescence Cell-Based Dose Response HTS to Identify Activators of Luciferase Translation or Activity in H4 […] Cells. [Related pubchem assays: 1829 (Project Summary), 1814 (Primary HTS)]; format: functional
[16] = tested on: H9c2; assay: cells; format: functional, cell-based; settings: Rattus norvegicus, H9c2, Myocardium;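 further: confirmatory concentration-response retest of ultra-high-throughput screening hits for modulation of myocardial damage; cell death induced by hydrogen peroxide oxidative stress; compound pretreatment for 60 min then peroxide exposure for 2 h; potency is for protecting the cells against peroxide damage rather than for killing them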
[17] = microbe, parasite or virus in culture; format: functional; settings: Mycobacterium tuberculosis
[18] = molecular target: T4, SUMO-activating enzyme (Homo sapiens, UniProt Q9UBT2); assay: blockers of SAE1/SAE2–UBC9 SUMO transfer – biochemical, HTRF, uHTS, primary screen (AID 2006); format: protein-complex assay
[19] = molecular target: T4, SUMO-activating enzyme; assay: blockers of UBC9-mediated SUMO conjugation – biochemical, AlphaScreen, SUMOylation inhibitor project, confirmation (AID 2018); format: functional
[20] = viability loss in THP-1 monocytes – THP-1 cells, cytotoxicity control for Vif-APOBEC3G degradation inhibitor project, dose response (AID 1117359); format: functional; settings: THP-1
[21] = molecular target: T5, Protein RecA (Mycobacterium tuberculosis, UniProt P9WHJ3); assay: Fluorescence Cell-Free Homogeneous Dose Retest to Identify Inhibitors of RecA-Intein Splicing Activity. [Related pubchem assays (depositor defined):AID2097, AID2223, AID489010, AID492950]; format: functional
T5 sequence (P9WHJ3 whole entry): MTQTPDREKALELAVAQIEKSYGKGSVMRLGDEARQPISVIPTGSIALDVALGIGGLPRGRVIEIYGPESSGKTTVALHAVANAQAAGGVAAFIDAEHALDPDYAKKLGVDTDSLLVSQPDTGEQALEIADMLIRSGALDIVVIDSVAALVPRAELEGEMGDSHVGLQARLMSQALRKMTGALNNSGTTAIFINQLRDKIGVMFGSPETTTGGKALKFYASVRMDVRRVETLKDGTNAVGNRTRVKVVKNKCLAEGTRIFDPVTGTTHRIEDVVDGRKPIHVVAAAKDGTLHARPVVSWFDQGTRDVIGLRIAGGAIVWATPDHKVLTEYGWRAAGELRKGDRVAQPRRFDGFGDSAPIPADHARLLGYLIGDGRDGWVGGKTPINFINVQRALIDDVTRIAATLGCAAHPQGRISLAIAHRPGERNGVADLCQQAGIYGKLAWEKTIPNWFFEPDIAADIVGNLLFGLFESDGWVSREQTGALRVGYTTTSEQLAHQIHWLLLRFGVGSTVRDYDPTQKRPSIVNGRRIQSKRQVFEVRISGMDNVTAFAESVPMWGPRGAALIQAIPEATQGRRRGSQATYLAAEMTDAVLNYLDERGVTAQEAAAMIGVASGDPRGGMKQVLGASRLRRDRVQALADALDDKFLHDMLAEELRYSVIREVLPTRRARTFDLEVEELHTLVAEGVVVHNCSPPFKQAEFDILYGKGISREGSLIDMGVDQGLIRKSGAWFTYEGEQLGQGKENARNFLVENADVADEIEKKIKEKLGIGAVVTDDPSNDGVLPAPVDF

[22] = molecular target: T6, Replicative DNA helicase DnaB (Mycobacterium tuberculosis, UniProt P9WMR3); assay: DnaB intein splicing inhibitors, dose response, biochemical, cell-free fluorescence (AID 449749); format: functional
T6 sequence (P9WMR3 whole entry): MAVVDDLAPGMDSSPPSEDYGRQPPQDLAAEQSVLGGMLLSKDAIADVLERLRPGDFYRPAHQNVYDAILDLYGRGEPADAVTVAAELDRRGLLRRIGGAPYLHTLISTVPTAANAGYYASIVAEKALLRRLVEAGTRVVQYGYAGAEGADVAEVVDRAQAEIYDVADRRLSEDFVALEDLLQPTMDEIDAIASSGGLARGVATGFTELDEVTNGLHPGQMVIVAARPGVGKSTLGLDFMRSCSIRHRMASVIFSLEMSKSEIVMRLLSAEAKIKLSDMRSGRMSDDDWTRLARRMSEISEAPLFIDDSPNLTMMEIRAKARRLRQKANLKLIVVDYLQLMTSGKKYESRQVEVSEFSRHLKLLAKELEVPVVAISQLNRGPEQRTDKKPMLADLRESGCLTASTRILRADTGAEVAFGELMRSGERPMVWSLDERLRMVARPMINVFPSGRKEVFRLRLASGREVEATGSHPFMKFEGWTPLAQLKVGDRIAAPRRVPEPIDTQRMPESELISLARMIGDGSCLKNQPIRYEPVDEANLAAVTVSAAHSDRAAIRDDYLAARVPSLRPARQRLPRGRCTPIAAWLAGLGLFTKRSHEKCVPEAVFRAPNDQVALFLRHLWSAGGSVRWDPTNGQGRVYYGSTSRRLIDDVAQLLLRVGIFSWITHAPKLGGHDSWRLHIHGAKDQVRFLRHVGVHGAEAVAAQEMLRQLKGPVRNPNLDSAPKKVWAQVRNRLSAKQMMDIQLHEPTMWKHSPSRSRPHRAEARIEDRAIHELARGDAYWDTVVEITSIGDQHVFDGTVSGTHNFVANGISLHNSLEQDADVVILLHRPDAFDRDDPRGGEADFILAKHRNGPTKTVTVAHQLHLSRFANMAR

[23] = Dd2 malaria parasite growth inhibition potency – SYBR Green, dry powder samples, dose response (AID 1159566); format: functional, cell-based;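 further: potency for growth inhibition with lower SYBR green DNA signal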
[24] = P. falciparum Dd2 growth inhibitors, dose response, SYBR Green, cherry-picked samples (AID 1159567); format: functional, cell-based
[25] = growth inhibition of yeast DHODH-expressing 3D7 parasites – SYBR Green, dry powder samples, dose response (AID 1159570); format: functional, cell-based;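 further: parasite growth measured after 72 hours of compound exposure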
[26] = growth inhibition of PfATP4-mutant resistant parasites – NITD609-resistant line, SYBR Green, dry powder, dose response (AID 1159571); format: functional, cell-based;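 further: parasites synchronized at ring stage by sorbitol before testing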
[27] = toxicity to human HepG2 hepatoma cells – cell-based, plate reader, dry powder samples, cytotoxicity control, dose response (AID 1159569); format: functional;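 further: inhibitor potency with signal falling toward the positive control level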

T4 sequence (Q9UBE0 whole entry): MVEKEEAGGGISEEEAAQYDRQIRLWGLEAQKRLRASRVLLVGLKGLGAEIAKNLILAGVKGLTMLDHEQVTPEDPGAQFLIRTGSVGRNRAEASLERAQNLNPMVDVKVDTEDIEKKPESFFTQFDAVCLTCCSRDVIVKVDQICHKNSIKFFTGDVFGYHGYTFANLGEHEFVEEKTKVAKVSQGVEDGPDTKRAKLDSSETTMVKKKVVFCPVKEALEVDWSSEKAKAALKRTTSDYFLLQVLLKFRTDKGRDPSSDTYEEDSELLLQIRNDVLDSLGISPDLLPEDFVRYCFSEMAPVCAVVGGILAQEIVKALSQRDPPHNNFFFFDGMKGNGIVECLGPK
T4 sequence (Q9UBT2 whole entry): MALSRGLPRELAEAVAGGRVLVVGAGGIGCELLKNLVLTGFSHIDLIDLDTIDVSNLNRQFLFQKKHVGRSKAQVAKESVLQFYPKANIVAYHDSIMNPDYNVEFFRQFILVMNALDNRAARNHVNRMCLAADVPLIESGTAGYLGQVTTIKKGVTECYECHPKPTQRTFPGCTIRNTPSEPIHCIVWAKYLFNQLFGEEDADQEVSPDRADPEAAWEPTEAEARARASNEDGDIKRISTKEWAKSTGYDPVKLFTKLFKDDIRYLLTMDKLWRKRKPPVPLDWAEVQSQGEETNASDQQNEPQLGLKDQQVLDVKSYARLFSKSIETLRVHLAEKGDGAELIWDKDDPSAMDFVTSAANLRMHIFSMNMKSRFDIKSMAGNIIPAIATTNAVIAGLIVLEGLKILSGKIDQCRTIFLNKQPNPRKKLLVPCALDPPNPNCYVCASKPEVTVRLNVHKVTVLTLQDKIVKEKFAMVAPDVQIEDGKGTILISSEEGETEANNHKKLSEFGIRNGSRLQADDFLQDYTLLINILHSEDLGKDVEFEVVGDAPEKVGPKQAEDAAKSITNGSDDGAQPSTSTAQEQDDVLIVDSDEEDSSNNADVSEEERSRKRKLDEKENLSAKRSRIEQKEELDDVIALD
Glyceraldehyde-3-phosphate dehydrogenase, sequence (P04406 whole entry): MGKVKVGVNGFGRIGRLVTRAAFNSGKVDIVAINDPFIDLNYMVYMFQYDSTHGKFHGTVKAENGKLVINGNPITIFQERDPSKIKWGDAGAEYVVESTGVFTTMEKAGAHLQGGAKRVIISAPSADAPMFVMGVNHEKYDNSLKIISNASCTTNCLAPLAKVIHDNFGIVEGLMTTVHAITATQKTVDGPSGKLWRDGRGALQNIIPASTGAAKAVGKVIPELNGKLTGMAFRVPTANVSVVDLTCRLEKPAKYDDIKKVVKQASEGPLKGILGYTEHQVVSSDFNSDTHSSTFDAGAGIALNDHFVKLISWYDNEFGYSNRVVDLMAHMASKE

Compound: Cc1ccc(Cl)c(N2C(=O)C(Cl)=C(N3CCN(C)CC3)C2=O)c1Cl
- IC50 [1]: > 100 µM (not active)
- IC50 [2]: 23.9 µM (active)
- IC50 [3]: 11.1 µM (active)

Compound: O=C1c2cccc3cccc(c23)N1Cc1cccc(F)c1
- IC50 [4]: 6.16 µM (active)
- IC50 [5]: 16.6 µM (active)
- IC50 [6]: > 20 µM (inactive)

Compound: O=C(NCc1ccccc1)/C(=C/c1ccc(OC(F)F)cc1)c1ccccc1
- CC50 [7]: 34.5 µM (active)

Compound: CCC(NC(=O)Nc1ccc(O)cc1)(C(F)(F)F)C(F)(F)F
- IC50 [8]: 40.2 µM (inconclusive)

Compound: O=C(Nc1ccccc1C(=O)O)c1ccc(NC(=O)c2ccc(Br)o2)cc1
- IC50 [9]: 35.4 µM (active)

Compound: COc1cccc(N2C(=O)C(Cl)=C(N3CCN(CCOCCO)CC3)C2=O)c1
- IC50 [1]: > 100 µM (not active)
- IC50 [2]: 8.85 µM (active)
- IC50 [3]: 9.11 µM (active)

Compound: CS(=O)(=O)N(CC(O)Cn1c2ccccc2c2ccccc21)c1ccccc1 (configuration not stated)
- IC50 [9]: 33 µM (active)

Compound: Cc1cccc(C)c1NC(=O)Cn1c(=O)n(CCCC(=O)NC2CCN(Cc3ccccc3)CC2)c(=O)c2ccccc21
- IC50 [4]: 4.06 µM (active)
- IC50 [5]: 6.42 µM (active)
- IC50 [6]: > 20 µM (inactive)

Compound: Cc1ccc(Nc2[nH]cnc3ncnc2-3)cc1Cl
- EC50 [10]: > 12 µM (not active)
- EC50 [11]: < 0.1 µM (active)
- EC50 [12]: > 120 µM (not active)
- EC50 [13]: 0.604 µM (active)
- EC50 [14]: 0.745 µM (active)
- EC50 [15]: 0.268 µM (inconclusive)

Compound: c1ccc(CN2CCN(CCCNc3ccc4nnc(-c5ccccc5)n4n3)CC2)cc1
- IC50 [8]: > 100 µM (active)
- IC50 [16]: > 79 µM (inactive)
- CC50 [17]: 35.6 µM (active)

Compound: CCCCn1c(=O)[nH]c(=O)c2c1nc(-c1ccc(-c3ccc(F)cc3)o1)n2C
- IC50 [18]: > 100 µM (inactive)
- IC50 [19]: > 100 µM (inactive)

Compound: CCCCOc1[nH]cnc2c3cc(OC)ccc3nc1-2
- EC50 [10]: 0.403 µM (active)
- EC50 [12]: < 0.1 µM (active)
- EC50 [13]: 0.239 µM (active)
- EC50 [14]: 0.274 µM (active)

Compound: Cc1ccc(-c2cc(-c3ccc4c(c3)OCO4)c(C#N)c(N)n2)o1
- IC50 [8]: 30.5 µM (inconclusive)
- CC50 [20]: 24.7 µM (active)

Compound: Cc1ccc(-c2cc(C(F)(F)F)c(C#N)c(O)n2)cc1
- IC50 [9]: 32.6 µM (active)

Compound: Cc1nn(-c2ccc(Cl)cc2)c(O)c1C(c1cccc(O)c1)c1c(C)[nH]n(-c2ccc(Cl)cc2)c1=O (configuration not stated)
- IC50 [18]: 47.8 µM (active)
- IC50 [19]: 4.08 µM (active)
- EC50 [21]: 0.897 µM (active)
- AC50 [22]: 1.36 µM (active)

Compound: CCOC(=O)c1s/c(=N\C(=O)c2ccc(C)c(C)c2)n(C)c1C
- EC50 [10]: 0.601 µM (active)
- EC50 [13]: 0.718 µM (active)
- EC50 [14]: 0.543 µM (active)
- EC50 [15]: < 0.1 µM (active)

Compound: COc1ccc2c3c([nH]c2c1)[C@H](CO)N(Cc1ccncc1)CC31CN(Cc2ccc(-c3ccccn3)cc2)C1
- AC50 [23]: 2.97 µM (active)
- AC50 [24]: 2.36 µM (active)
- AC50 [25]: 3.42 µM (active)
- AC50 [26]: 2.8 µM (active)
- AC50 [27]: 43.3 µM (active)

Compound: COc1ccc2c3c(n(C)c2c1)[C@H](CO)N(CC1CC1)CC31CN(C(=O)c2ccc3c(c2)OCO3)C1
- AC50 [23]: 1.26 µM (active)
- AC50 [24]: 1.85 µM (active)
- AC50 [25]: 1.24 µM (active)
- AC50 [26]: 1.28 µM (active)
- AC50 [27]: > 100 µM (inactive)
